Source: patent publication US5223526A, “Pyrazole carboxanilide fungicides and use” (Monsanto Company, priority 1992, dated 1993)

Experiments:
[1] = test system: Rhizoctonia solani; experiment: Rice sheath blight; format: in vivo; parameters: scale not given here; details: inoculated two days later, rated after 7 days, average of five plants; for Disease Control Rating at 0.02 mg/mL: foliage and soil sprayed with 0.02 mg/mL; for Disease Control Rating at 0.1 mg/mL: foliage and soil sprayed with 0.1 mg/mL; for Disease Control Rating at 0.5 mg/mL: foliage and soil sprayed with 0.5 mg/mL
Method: Rice plants, 11 to 15 days old, are grown in 7.65 cm^2 pots. Each plant in the treatment groups is treated by spraying both the foliage and the soil surface, each with 2 mL of a water/acetone/Tween®20 formulation containing 0.5, 0.1, or 0.02 mg/mL of Compound A. The pots are placed in flood trays which are filled with water to just below the soil line. Two days later, approximately two grams of Rhizoctonia solani inoculum, cultured on rice grain for four to eight weeks, is applied to the base of the rice plants in each pot. After 7 days in a 25° C. high humidity growth chamber, each plant is evaluated for the level of disease contro as compared to untreated controls by the following scale and the average of five plants per treatment level is calculated.

[2] = target: T1, succinate dehydrogenase (Botrytis cinerea, UniProt A0A384J5E4+A0A384J8V8+A0A384JHJ5); experiment: Enzyme inhibition: succinate dehydrogenase activity in Botrytis cinerea mitochondria (DCPIP reduction); format: biochemical; details: concentration required to inhibit the rate of DCPIP reduction by 50%; Botrytis cinerea isolate Nick mitochondria; read-out: I50 (μM conc.)
T1 construct: succinate-DCPIP reductase assay with KCN
Method: Mitochondria were isolated by a method adapted from G.A. White [Biochem. Biophys. Res. Commun. 44: 1212, 1971]. Twenty to thirty grams of Botrytis cinerea isolate Nick were resuspended in 250 mL 0.25M sucrose, 5mM Na4 EDTA, pH 7.0 (+) 0.15% (w/v) bovine serum albumin (BSA) and placed in a Bead Beater chamber (Biospec Products, Bartlesville, Ok.). Zirconium oxide beads (0.5mm) were added to finish filling the chamber. Four 30 second beats separated by 2 minute temperature equilibration periods in the cold were used to break the mycelia. A crude mitochondrial preparation was harvested from the homogenate by differential centrifugation at 4° C. and resuspended in BSA-free sucrose/EDTA media and used for SDH assays.
The succinate dehydrogenase activity was measured at 600 nm in 50 mM potassium phosphate, pH 7.2, 1 mM KCN, 45 μM 2,6-dichlorophenolindophenol (DCPIP) and 17 mM disodium succinate (final volume, 1 mL) with a Perkin-Elmer Lambda 7 ultraviolet-visible spectrophotometer. The test compounds were added as acetone solutions (final concentration of acetone, 1% (v/v)). The mitochondrial preparatons were used to initiate the reaction. All rates were corrected for endogenous activities minus succinate. Semilog plots of percentage inhibition versus test compound concentration were used to determine inhibition expressed as I50 (μM) which is the concentration required to inhibit the rate of DCPIP reduction by 50%. The commercial fungicide carboxin was used as standard throughout.

[3] = test system: Botrytis cinerea; experiment: Vine grey mold (grape berries); format: in vivo; details: average of six berries, 7-10 days; for pest or weed control at 50 ppm: grape berries treated with 50 ppm, read-out: % DISEASE CONTROL 50 ppm; for pest or weed control at 200 ppm: grape berries treated with 200 ppm, read-out: % DISEASE CONTROL 200 ppm
Method: Grape berries, which have been washed and surfaced sterilized in 70% ethanol for one minute, are, except for the negative controls, treated with 0.2 mL of a 2:3 acetone/water formulation (containing 0.05% Tween® 20) of 200 or 50 ppm of the test compounds and placed one per well in 12-well plates. Six berries per treatment level are used. Twenty-four hours later each berry is inoculated with Botrytis cinerea conidia, 0.2 mL of 10^6 spores/mL suspension. The plates are incubated at 20° C. with a 12 hours photoperiod for 7-10 days and the percent surface area infected with the disease is determined for each replicate using the values of 0, 1, 2, 5, 7, 10, 15, 20, 25, 30, 35, 40, 45, 50, 55, 60, 65, 70, 75, 80, 85, 90, 95, and 100%. Treatment means are calculated and percent disease control is determined by the formula [(control mean - treatment mean)/control means]×100.
Some of the compounds have been tested more than once and the results shown are the average of the number of tests reported.

[4] = test system: Botrytis cinerea; experiment: Eggplant grey mold; format: in vivo; parameters: scale not given here; details: inoculated 24 h later, rated after 3-4 days; for Disease Control Rating at 500 ppm: eggplant sprayed with 500 ppm; for Disease Control Rating at 20 ppm: eggplant sprayed with 20 ppm; for Disease Control Rating at 100 ppm: eggplant sprayed with 100 ppm
Method: Eggplant seed are planted in 2.25" square pots, six per pot, and maintained in growth chambers set at 23° C., 80% humidity, and 12 h photoperiod. When the plants are at the cotyledon stage (14-18 days afterplanting), the plants are sprayed with 1.5 mL/pot of 500, 100 or 20 ppm 2:3 acetone:water (with 0.5% Tween® 20) formulations of the test compounds.
Twenty-four hours later the plants are inoculated with Botrytis cinerea, approximately 0.5 mL/pot of a 4×10^6 spore/mL suspension. The plantes are incubated at 23° C. and 100% humidity for 3-4 days, at which time disease control ratings are made based on presence and severity of Botrytis lesions.

T1 sequence (A0A384J5E4 1-300): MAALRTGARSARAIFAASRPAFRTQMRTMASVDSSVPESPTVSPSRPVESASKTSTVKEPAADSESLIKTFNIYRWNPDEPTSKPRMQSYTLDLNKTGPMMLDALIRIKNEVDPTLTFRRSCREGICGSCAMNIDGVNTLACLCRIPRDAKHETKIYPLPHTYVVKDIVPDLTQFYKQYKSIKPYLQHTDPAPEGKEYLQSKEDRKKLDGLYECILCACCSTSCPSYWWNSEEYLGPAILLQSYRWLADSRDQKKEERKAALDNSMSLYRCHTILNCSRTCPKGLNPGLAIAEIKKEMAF
T1 sequence (A0A384J8V8 1-189): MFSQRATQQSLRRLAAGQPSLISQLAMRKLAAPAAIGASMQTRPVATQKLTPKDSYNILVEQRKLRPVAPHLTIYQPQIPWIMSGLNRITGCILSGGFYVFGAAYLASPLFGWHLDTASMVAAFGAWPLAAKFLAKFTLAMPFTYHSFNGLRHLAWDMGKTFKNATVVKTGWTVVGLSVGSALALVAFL
T1 sequence (A0A384JHJ5 1-192): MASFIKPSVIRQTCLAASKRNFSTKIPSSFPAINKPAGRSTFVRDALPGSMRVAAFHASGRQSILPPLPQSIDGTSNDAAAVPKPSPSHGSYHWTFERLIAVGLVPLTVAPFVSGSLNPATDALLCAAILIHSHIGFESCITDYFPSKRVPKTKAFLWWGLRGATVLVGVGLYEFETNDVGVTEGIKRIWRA
T1 sequence (A0A384K456 1-647 partner): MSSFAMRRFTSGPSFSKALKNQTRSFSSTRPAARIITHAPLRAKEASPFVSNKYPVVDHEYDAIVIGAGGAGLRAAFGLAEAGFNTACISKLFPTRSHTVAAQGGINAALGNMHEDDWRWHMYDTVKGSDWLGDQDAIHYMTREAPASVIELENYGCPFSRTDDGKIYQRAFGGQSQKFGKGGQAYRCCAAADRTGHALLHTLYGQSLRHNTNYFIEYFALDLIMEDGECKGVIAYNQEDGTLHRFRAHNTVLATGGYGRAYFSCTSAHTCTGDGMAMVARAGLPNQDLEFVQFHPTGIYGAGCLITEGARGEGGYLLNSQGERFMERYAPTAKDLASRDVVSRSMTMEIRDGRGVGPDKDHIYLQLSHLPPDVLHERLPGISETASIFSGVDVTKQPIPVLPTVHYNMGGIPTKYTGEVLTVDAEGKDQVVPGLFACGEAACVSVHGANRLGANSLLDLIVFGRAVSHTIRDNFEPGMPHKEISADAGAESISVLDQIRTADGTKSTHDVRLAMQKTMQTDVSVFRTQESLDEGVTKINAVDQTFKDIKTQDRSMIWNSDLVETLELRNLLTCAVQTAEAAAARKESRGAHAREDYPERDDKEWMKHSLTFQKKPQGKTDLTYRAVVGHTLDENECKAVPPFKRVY

For Cc1nn(C)cc1C(=O)Nc1ccccc1[C@@H]1C[C@H]2CC[C@@H]1C2 (relative stereo) [Example 71, 1H-pyrazole-4-carboxamide, N-(2-bicyclo[2.2.1]hept-2-ylphenyl)-1,3-dimethyl-, exo-], the “Disease Control Rating at 0.02 mg/mL” value [1] was 1, the “Disease Control Rating at 0.1 mg/mL” value [1] was 3 and the “Disease Control Rating at 0.5 mg/mL” value [1] was 3. For the same compound, the IC50 [2] was 0.046 µM, the pest or weed control at 50 ppm [3] was 25% and the pest or weed control at 200 ppm [3] was 57%. For the same compound, the “Disease Control Rating at 500 ppm” value [4] was 0.
Cn1cc(C(=O)Nc2ccccc2C2CCCCC2)c([N+](=O)[O-])n1 [Example 62, 1H-pyrazole-4-carboxamide, N-(2-cyclohexylphenyl]-1-methyl-3-nitro-] was tested, and the “Disease Control Rating at 0.5 mg/mL” value [1] was 0, the IC50 [2] was 0.29 µM and the pest or weed control at 50 ppm [3] was 0%. For the same compound, the pest or weed control at 200 ppm [3] was 0%, the “Disease Control Rating at 20 ppm” value [4] was 0 and the “Disease Control Rating at 100 ppm” value [4] was 0. For the same compound, the “Disease Control Rating at 500 ppm” value [4] was 1.
For Cn1cc(C(=O)Nc2ccccc2C2=CCC(C(C)(C)C)CC2)c(C(F)(F)F)n1 (centres unmarked) [Example 133, 1H-pyrazole-4-carboxamide, N-[2-[4-(1, -dimethylethyl)-1-cyclohexen-1-yl]phenyl]-1-methyl-3-(trifluoromethyl)-], the “Disease Control Rating at 0.02 mg/mL” value [1] was 1, the “Disease Control Rating at 0.1 mg/mL” value [1] was 2 and the “Disease Control Rating at 0.5 mg/mL” value [1] was 3. It also gave an IC50 [2] of 0.0046 µM, a pest or weed control at 50 ppm [3] of 39% and a pest or weed control at 200 ppm [3] of 36%. The “Disease Control Rating at 20 ppm” value [4] was 0, the “Disease Control Rating at 100 ppm” value [4] was 0 and the “Disease Control Rating at 500 ppm” value [4] was 1.
CSc1nn(C)cc1C(=O)Nc1ccccc1C1CCCCC1 [Example 39, 1H-pyrazole-4-carboxamide, N-(2-cyclohexylphenyl)-1-methyl-3-(methylthio)-] was tested, and the “Disease Control Rating at 0.5 mg/mL” value [1] was 0, the IC50 [2] was 0.36 µM and the pest or weed control at 50 ppm [3] was 50%. The pest or weed control at 200 ppm [3] was 55% and the “Disease Control Rating at 500 ppm” value [4] was 1.
In the case of Cn1cc(C(=O)Nc2ccccc2C2=CCCCC2)c(C(F)(F)F)n1 [Example 110, 1H-pyrazole-4-carboxamide, N-[2-(1-cyclohexen-1-yl)phenyl]-1-methyl-3-(trifluoromethyl)-], the “Disease Control Rating at 0.02 mg/mL” value [1] is reported as 0, the “Disease Control Rating at 0.1 mg/mL” value [1] is reported as 0 and the “Disease Control Rating at 0.5 mg/mL” value [1] is reported as 3. The IC50 [2] was 0.019 µM, the pest or weed control at 50 ppm [3] was 97% and the pest or weed control at 200 ppm [3] was 100%. For the same compound, the “Disease Control Rating at 20 ppm” value [4] was 1, the “Disease Control Rating at 100 ppm” value [4] was 2 and the “Disease Control Rating at 500 ppm” value [4] was 2.
In the case of Cn1cc(C(=O)Nc2ccccc2[C@@H]2C[C@H]3CC[C@@H]2C3)c(C(F)F)n1 (relative stereo) [Example 26, 1H-pyrazole-4-carboxamide, N-(2-bicyclo[2.2.1]hept-2-ylphenyl)-3-(difluoromethyl)-1-methyl-, exo-], the “Disease Control Rating at 0.5 mg/mL” value [1] is reported as 1, the IC50 [2] is reported as 0.0017 µM and the pest or weed control at 50 ppm [3] is reported as 97%. For the same compound, the pest or weed control at 200 ppm [3] was 100%, the “Disease Control Rating at 20 ppm” value [4] was 1 and the “Disease Control Rating at 100 ppm” value [4] was 2. For the same compound, the “Disease Control Rating at 500 ppm” value [4] was 1.
With Cc1nn(C)c(C)c1C(=O)Nc1ccccc1C1CCCCC1 [Example 30, 1H-pyrazole-4-carboxamide, N-(2-cyclohexylphenyl)-1,3,5-trimethyl-] the “Disease Control Rating at 0.02 mg/mL” value [1] was 2, the “Disease Control Rating at 0.1 mg/mL” value [1] was 3 and the “Disease Control Rating at 0.5 mg/mL” value [1] was 3. The IC50 [2] was 0.34 µM, the pest or weed control at 50 ppm [3] was 75% and the pest or weed control at 200 ppm [3] was 59%. The “Disease Control Rating at 20 ppm” value [4] was 0, the “Disease Control Rating at 100 ppm” value [4] was 2 and the “Disease Control Rating at 500 ppm” value [4] was 2.
For Cn1cc(C(=O)Nc2ccccc2C2CCCCCC2)c(Cl)n1 [Example 51, 1H-pyrazole-4-carboxamide, 3-chloro-N-(2-cycloheptylphenyl)-1-methyl-], the “Disease Control Rating at 0.02 mg/mL” value [1] was 0, the “Disease Control Rating at 0.1 mg/mL” value [1] was 1 and the “Disease Control Rating at 0.5 mg/mL” value [1] was 2. For the same compound, the IC50 [2] was 0.023 µM, the pest or weed control at 50 ppm [3] was 16% and the pest or weed control at 200 ppm [3] was 27%. The “Disease Control Rating at 500 ppm” value [4] was 0.
For Cn1cc(C(=O)Nc2ccccc2C2CCCCCC2)c(C(F)F)n1 [Example 9, 1H-pyrazole-4-carboxamide, N-(2-cycloheptylphenyl)-3-(difluoromethyl)-1-methyl-], the “Disease Control Rating at 0.02 mg/mL” value [1] was 3, the “Disease Control Rating at 0.1 mg/mL” value [1] was 3 and the “Disease Control Rating at 0.5 mg/mL” value [1] was 3. For the same compound, the IC50 [2] was 0.0019 µM, the pest or weed control at 50 ppm [3] was 94% and the pest or weed control at 200 ppm [3] was 89%. For the same compound, the “Disease Control Rating at 20 ppm” value [4] was 0, the “Disease Control Rating at 100 ppm” value [4] was 2 and the “Disease Control Rating at 500 ppm” value [4] was 2.
Cn1cc(C(=O)Nc2ccccc2OCCCC2CCCC2)c(C(F)(F)F)n1 [Example 49, 1H-pyrazole-4-carboxamide, N-[2-(3-cyclopentylpropoxy)phenyl]-1-methyl-3-(trifluoromethyl)-] was tested, and the “Disease Control Rating at 0.5 mg/mL” value [1] was 0, the IC50 [2] was 0.047 µM and the pest or weed control at 50 ppm [3] was 4%. The pest or weed control at 200 ppm [3] was 0% and the “Disease Control Rating at 500 ppm” value [4] was 0.
With C[C@@H]1CCC[C@H](C)[C@H]1Oc1ccccc1NC(=O)c1cn(C)nc1C(F)(F)F [Example 76, 1H-pyrazole-4-Carboxamide, 1 methyl-N-[2-[(2,6-dimethylcyclohexyl)oxy]phenyl]-3-(trifluoromethyl)-, (1alpha,2beta,6beta)-] the “Disease Control Rating at 0.5 mg/mL” value [1] was 0, the IC50 [2] was 0.032 µM and the pest or weed control at 50 ppm [3] was 8%. The pest or weed control at 200 ppm [3] was 0% and the “Disease Control Rating at 500 ppm” value [4] was 0.
Cn1cc(C(=O)Nc2ccccc2C2=CCCCCC2)c(C(F)F)n1 [Example 111, 1H-pyrazole-4-carboxamide, N-[2-(1-cyclohepten-1-yl)phenyl]-3-(difluoromethyl)-1-methyl-] was tested, and the “Disease Control Rating at 0.02 mg/mL” value [1] was 3, the “Disease Control Rating at 0.1 mg/mL” value [1] was 3 and the “Disease Control Rating at 0.5 mg/mL” value [1] was 3. It also gave an IC50 [2] of 0.0038 µM, a pest or weed control at 50 ppm [3] of 99% and a pest or weed control at 200 ppm [3] of 100%. For the same compound, the “Disease Control Rating at 20 ppm” value [4] was 1, the “Disease Control Rating at 100 ppm” value [4] was 1 and the “Disease Control Rating at 500 ppm” value [4] was 1.
With Cn1cc(C(=O)Nc2ccccc2C2CCCCCC2)c(I)n1 [Example 57, 1H-pyrazole-4-carboxamide, N-[2-(cycloheptyl)phenyl]-3-iodo-1-methyl-] the “Disease Control Rating at 0.5 mg/mL” value [1] was 0, the IC50 [2] was 0.0047 µM and the pest or weed control at 50 ppm [3] was 53%. The pest or weed control at 200 ppm [3] was 72% and the “Disease Control Rating at 500 ppm” value [4] was 0.
Cn1cc(C(=O)Nc2cc(F)ccc2C2CCCCC2)c(C(F)F)n1 [Example 16, 1H-pyrazole-4-carboxamide, N-(2-cyclohexyl-5-fluorophenyl)-3-(difluoromethyl)-1-methyl-] was tested, and the “Disease Control Rating at 0.5 mg/mL” value [1] was 1, the IC50 [2] was 0.024 µM and the pest or weed control at 50 ppm [3] was 15%. The pest or weed control at 200 ppm [3] was 57% and the “Disease Control Rating at 500 ppm” value [4] was 1.
